Consider one molecule from publication PMC5559406, “A human PET study of [^11C]HMS011, a potential radioligand for AMPA receptors” (EJNMMI Research, 2017).

This experiment deals with T1, human AMPA receptors.
T1 construct: gene GRIA1; assay details only in supplement
The experiment can be described thus: radioligand receptor binding assay (details in supplement). Particulars: labelled compound; noncompetitive (perampanel derivative); subunit not told.

In general, Kd refers to the free concentration of one partner at which half of the binding sites on the other are occupied at equilibrium, for simple one-to-one binding. Molecule `CNc1cccc(-n2cc(-c3ncccn3)cc(-c3ccccc3C#N)c2=O)c1` [[11C]HMS011, 2-(1-(3-([^11C]methylamino)phenyl)-2-oxo-5-(pyrimidin-2-yl)-1,2-dihydropyridin-3-yl) benzonitrile] showed a Kd of roughly 0.015 µM.
